Inhibition data for 35 compounds are collected here from ChEMBL document CHEMBL6083259, “Discovery of quinazoline-benzothiazole derivatives as novel potent protease-activated receptor 4 antagonists with improved pharmacokinetics and low bleeding liability” (Eur J Med Chem, 2024).

By inhibition is commonly meant the percentage by which the read-out fell short of the control.

For the first experiment, the target named is T1, Proteinase-activated receptor 4 (Homo sapiens) (UniProt Q96RI0).
T1 sequence (whole entry): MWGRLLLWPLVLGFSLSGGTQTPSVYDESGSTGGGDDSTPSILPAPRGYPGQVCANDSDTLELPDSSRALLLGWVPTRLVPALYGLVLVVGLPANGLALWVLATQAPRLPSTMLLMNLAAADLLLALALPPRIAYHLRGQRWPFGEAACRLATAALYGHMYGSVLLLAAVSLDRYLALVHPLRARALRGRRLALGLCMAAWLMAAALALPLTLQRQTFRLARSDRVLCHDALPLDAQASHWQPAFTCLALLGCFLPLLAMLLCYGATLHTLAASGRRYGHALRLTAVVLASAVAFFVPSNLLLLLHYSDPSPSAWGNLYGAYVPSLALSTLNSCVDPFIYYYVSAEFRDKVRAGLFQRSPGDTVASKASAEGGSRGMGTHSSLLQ
Description: Antagonist activity at PAR4 in human platelet rich plasma assessed as inhibition of gamma-PAR4 agonist peptide (AYPGKF-NH2)-induced platelet aggregation at 200 nM preincubated for 5 mins followed by peptide addition and measured after 5 mins by aggregometer relative to control. In kind it is cell-based. Particulars: filed as antagonist, time 10.0 min.
For the compound `COc1ccc2nc(-c3cc(C)cc4cnc(OC)nc34)sc2c1`, the inhibition worked out at 79.8%.
In the case of `COCOc1ncc2c(-c3nc4ccc(OC)cc4s3)cc(C)cc2n1`, the inhibition is 73.9%.
Consider `COc1cc(Cl)c2nc(-c3cc(C)cc4cncnc34)sc2c1`, for which the inhibition was 82.3%.
Take `COc1cc(Cl)c2nc(-c3cc(C)cc4cnc(N5CCOCC5)nc34)sc2c1`: the inhibition came to 52.3%.
`COCOc1ncc2c(-c3nc4c(Cl)cc(OC)cc4s3)cc(C)cc2n1`: the inhibition stood at 83.8%.
The same measure, in the same setting: the figure for `COc1cc(Cl)c2nc(-c3cc(C)cc4nc(OC)ncc34)sc2c1` is 85.2%.
Turning to `COc1ncc2c(-c3nc4cc(F)c5c(c4s3)C[C@@H](COC(=O)Nc3ccc(C(=O)N4CCOCC4)cc3)O5)cc(C)cc2n1`, the inhibition amounted to 61.2%.
On to `COc1ccc2nc(-c3cc(C)cc4nc(OC(C)C)ncc34)sc2c1`, for which the inhibition stood at 42.9%.
For `COc1cc(Cl)c2nc(-c3cc(C)cc4cnc(OC)nc34)sc2c1`, the inhibition turned out to be 86.4%.
The same measure, in the same setting: under `CCOc1ncc2c(-c3nc4cc(F)c(OC)cc4s3)cc(C)cc2n1` stands 40.4%.
Still for that read-out and setting: under `COc1ccc2nc(-c3cc(C)cc4nc(SC)ncc34)sc2c1` stands 62.3%.
As for `COc1ccc(NC(=O)OC[C@H]2Cc3c(c(F)cc4nc(-c5cc(C)cc6nc(OC)ncc56)sc34)O2)c(C)c1`, the inhibition is 55.3%.
Regarding `COc1ccc(NC(=O)OC[C@H]2Cc3c(c(F)cc4nc(-c5cc(C)cc6nc(OC)ncc56)sc34)O2)cc1`, the inhibition worked out at 70.5%.
On to `COc1ncc2c(-c3nc4ccccc4s3)cc(C)cc2n1`, for which the inhibition is 49.6%.
In the case of `COc1cc(OC)c2nc(-c3cc(C)cc4nc(OC)ncc34)sc2c1`, the inhibition was 47.8%.
Turning to `COc1ncc2c(-c3nc4cc(F)c5c(c4s3)C[C@@H](COC(=O)N3CCOCC3)O5)cc(C)cc2n1`, the inhibition is 47.6%.
Same read-out and setting: under `COc1ncc2cc(C)cc(-c3nc4c(C)cc5c(c4s3)OCCO5)c2n1` stands 65.3%; under `COCOc1ncc2c(-c3nc4cc(F)c(OC)cc4s3)cc(C)cc2n1`, 86.5%; under `COc1cc(Cl)c2nc(-c3cc(C)cc4cnc(N(C)C)nc34)sc2c1`, 47.6%.
For the compound `COc1cc(Cl)c2nc(-c3cc(C)cc4cnc(SC)nc34)sc2c1`, the inhibition is 69.2%.
In the case of `CCOc1ncc2c(-c3nc4c(Cl)cc(OC)cc4s3)cc(C)cc2n1`, the inhibition worked out at 43.4%.
`COc1ncc2c(-c3nc4cc(F)c5c(c4s3)C[C@H](COC(=O)Nc3ccc(C)cc3)O5)cc(C)cc2n1`: the inhibition came out at 79.6%.
As for `COc1cc(Cl)c2nc(-c3cc(C)cc4nc(SC)ncc34)sc2c1`, the inhibition was 68.2%.
`COCc1ncc2c(-c3nc4cc(F)c(OCCOC(=O)Nc5ccc(C(=O)N6CCOCC6)cc5)cc4s3)cc(C)cc2n1`: the inhibition came to 67.1%.
As to `CNc1ncc2cc(C)cc(-c3nc4c(Cl)cc(OC)cc4s3)c2n1`, the inhibition came out at 58.1%.
Turning to `CNc1ncc2c(-c3nc4c(Cl)cc(OC)cc4s3)cc(C)cc2n1`, the inhibition was 58.7%.
For the compound `COc1cc(F)c2nc(-c3cc(C)cc4cnc(OC)nc34)sc2c1`, the inhibition came out at 89.6%.
For `COc1ncc2cc(C)cc(-c3nc4cc(F)c(OC)cc4s3)c2n1`, the inhibition came out at 90.2%.
For the compound `COc1ncc2c(-c3nc4cc(F)c5c(c4s3)C[C@H](COC(=O)Nc3ccc(C)cc3F)O5)cc(C)cc2n1`, the inhibition was determined as 82.7%.
Same read-out and setting: the figure for `COc1ncc2c(-c3nc4cc(F)c5c(c4s3)C[C@H](COC(=O)N3CCOCC3)O5)cc(C)cc2n1` is 64.7%.

Still in this experiment, the particulars now being: time 10.0 min.
For the compound `COc1cc(Cl)c2nc(-c3cc(C)cc4cnc(OC(C)C)nc34)sc2c1`, the inhibition is 26.3%.
With `COc1ccc(NC(=O)OC[C@H]2Cc3c(c(F)cc4nc(-c5cc(C)cc6nc(OC)ncc56)sc34)O2)cn1`, the inhibition stood at 32.9%.
As for `COc1ncc2c(-c3nc4cc(F)c5c(c4s3)C[C@H](COC(=O)Nc3cnc(C)nc3)O5)cc(C)cc2n1`, the inhibition was 27.5%.
As for `COc1ncc2cc(C)cc(-c3nc4c(Cl)cc(Cl)cc4s3)c2n1`, the inhibition amounted to 34.7%.
On to `COCc1ncc2c(-c3nc4cc(F)c(OCCOC(=O)N5CCOCC5)cc4s3)cc(C)cc2n1`, for which the inhibition came out at 34.5%.
